According to US20100021918A1, “METHOD FOR ASSAYING ACTION OF ANTITUMOR AGENT USING SPLICING DEFECTS AS INDEX” (Eisai R&D Management Co., Ltd., priority 2007, published 2010):

Tested on: p27/Kip1
Experiment: Western blotting of abnormal protein from pre-mRNA, p27/Kip1
Type: cell-based, human
Settings: HeLa cells, about 100 nM, 24 hours; untreated: only a 27 kDa band (FIG. 4)
Text: Consequently the protein may serves as a protein marker to monitor the action of (8E,12E,14E)-7-((4-cycloheptylpiperazin-1-yl)carbonyl)oxy-3,6,16,21-tetrahydroxy-6,10,12,16,20-pentamethyl-18,19-epoxytricosa-8,12,14-trien-11-olide. Whether the pre-mRNA-dependent abnormal protein practically emerged upon the treatment of (8E,12E,14E)-7-((4-cycloheptylpiperazin-1-yl)carbonyl)oxy-3,6,16,21-tetrahydroxy-6,10,12,16,20-pentamethyl-18,19-epoxytricosa-8,12,14-trien-11-olide was examined by using cancer cells (HaLa). […] Based on these findings, the protein generated from pre-mRNA can serve as the marker as well.
About 3×10^5 cells of HeLa cells were first seeded in a 24-well culture plate (bottom area: 2 cm^2), and 18 hours later, the compound was added thereto at the indicated concentration, followed by additional 24-hour culturing. The cells were washed once with PBS(−), and then were lysed by treating with 0.2 ml of M-PER reagent (PIERCE) for 30 minutes. The collected lysate was filtered with a 0.45 μm filter to remove insoluble matters and then combined with an equal amount of 2×SDS-PAGE sample solution. The mixture was heated to be denatured at 95° C. for five minutes to yield a sample to be analyzed.
The analysis sample (15 μl each) was separated with 5-20% SDS-PAGE and transferred onto a PVDF membrane (Hybond-P: GE-Amersham). […]

In the case of CCC(O)C(C)C1OC1CC(C)(O)/C=C/C=C(\C)C1OC(=O)CC(O)CCC(C)(O)C(OC(=O)N2CCN(C3CCCCCC3)CC2)/C=C/C1C (stereo not shown) [E7107, (8E,12E,14E)-7-((4-cycloheptylpiperazin-1-yl)carbonyl)oxy-3,6,16,21-tetrahydroxy-6,10,12,16,20-pentamethyl-18,19-epoxytricosa-8,12,14-trien-11-olide], the “p27/Kip1 bands in Western blot” value was “appearance of a band with about 22 kDa was confirmed”.
